Data published in US10301260B2, “Pyrrolidine GPR40 modulators” (BRISTOL-MYERS SQUIBB COMPANY, priority 2014, dated 2019).
Counter-ions that a name gives are not always drawn.

Biological target: T1, hGPR40 (Homo sapiens, UniProt O14842)
T1 construct: 3xFLAG; expressed in transfected cells
Test: FDSS-based intracellular calcium assay (Human GRP40 In Vitro assay)
Type: cell-based
Details: cells expressing GPR40, intracellular Ca2+ response
Protocol: FDSS-Based Intracellular Calcium Assay
Cell lines expressing GPR40 are generated using the pDEST-3xFLAG gene expression system and are cultured in culture medium comprising the following components: F12 (Gibco #11765), 10% lipid deprived fetal bovine serum, 250 μg/ml zeocin and 500 μg/ml G418. To conduct the fluorescent imaging plate reader (FLIPR)-based calcium flux assay to measure intracellular Ca^2+ response, cells expressing GPR40 are plated on 384 well plates (BD Biocoat #356697) at a density of 20,000 cells/20 μL medium per well in phenol red and serum-free DMEM (Gibco #21063-029) and incubated overnight. Using BD kit #s 80500-310 or -301, the cells are incubated with 20 μL per well of Hank's buffered salt solution with 1.7 mM probenecid and Fluo-3 at 37° C. for 30 min. Compounds are dissolved in DMSO and diluted to desired concentrations with assay buffer and added to the cells as 3× solution (20 μL per well). Run fluorescence/luminescence reader FDSS (Hamamatsu) to read intracellular Ca^2+ response.
The exemplified Examples disclosed below were tested in the Human GRP40 In Vitro assay described above and found having hGRP40 modulating activity.

T1 sequence (O14842 whole entry): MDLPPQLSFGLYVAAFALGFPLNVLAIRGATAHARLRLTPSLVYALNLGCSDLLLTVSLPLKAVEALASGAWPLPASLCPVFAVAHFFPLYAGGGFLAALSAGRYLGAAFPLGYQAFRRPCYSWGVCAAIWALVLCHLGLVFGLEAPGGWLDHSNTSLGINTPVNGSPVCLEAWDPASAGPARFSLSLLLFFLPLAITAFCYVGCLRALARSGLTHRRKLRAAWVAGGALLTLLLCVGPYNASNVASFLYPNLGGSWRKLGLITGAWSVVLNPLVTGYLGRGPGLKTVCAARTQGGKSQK

Row | Compound | EC50 [nM]
1 | COc1ccc(F)c(-c2ccc(Cc3ccc(N4CC(c5cc(C)no5)CC4CC(=O)O)cc3)c(C)c2)c1 (single isomer, unassigned) [Example 9, Isomer 1, 2-(1-(4-((2′-Fluoro-5′-methoxy-3-methyl-[1,1′-biphenyl]-4-yl)methyl)phenyl)-4-(3-methylisoxazol-5-yl)pyrrolidin-2-yl)acetic Acid, HCl] | 150
2 | COc1ccc(F)c(-c2ccc(Cc3ccc(N4CC(c5cc(C)no5)CC4CC(=O)O)cc3)c(C)c2)c1 (single isomer, unassigned) [Example 9, Isomer 2, 2-(1-(4-((2′-Fluoro-5′-methoxy-3-methyl-[1,1′-biphenyl]-4-yl)methyl)phenyl)-4-(3-methylisoxazol-5-yl)pyrrolidin-2-yl)acetic Acid, HCl] | 2200
3 | COc1ccc(F)c(-c2ccc(Cc3ccc(N4CC(c5cc(C)no5)CC4CC(=O)O)cc3)c(C)c2)c1 (single isomer, unassigned) [Example 9, Isomer 3, 2-(1-(4-((2′-Fluoro-5′-methoxy-3-methyl-[1,1′-biphenyl]-4-yl)methyl)phenyl)-4-(3-methylisoxazol-5-yl)pyrrolidin-2-yl)acetic Acid, HCl] | 1400
4 | COc1ccc(F)c(-c2ccc(Cc3ccc(N4CC(c5cc(C)no5)CC4CC(=O)O)cc3)c(C)c2)c1 (single isomer, unassigned) [Example 9, Isomer 4, 2-(1-(4-((2′-Fluoro-5′-methoxy-3-methyl-[1,1′-biphenyl]-4-yl)methyl)phenyl)-4-(3-methylisoxazol-5-yl)pyrrolidin-2-yl)acetic Acid, HCl] | 3500
5 | COc1ccc(F)c(-c2ccc(Cc3ccc(N4CC(c5ccon5)CC4CC(=O)O)cc3)c(C)c2)c1 (single isomer, unassigned) [Example 11, Isomer 1, 2-(1-(4-((2′-Fluoro-5′-methoxy-3-methyl-[1,1′-biphenyl]-4-yl)methyl)phenyl)-4-(isoxazol-3-yl)pyrrolidin-2-yl)acetic Acid, HCl] | 8100
6 | COc1ccc(F)c(-c2ccc(Cc3ccc(N4CC(c5cccc(Cl)c5)C[C@@H]4CC(=O)O)cc3)c(C)c2)c1 (single isomer, unassigned) [Example 12, Isomer 1, HCl] | 160
7 | COc1ccc(F)c(-c2ccc(Cc3ccc(N4C[C@@H](N5CCCCC5)C[C@@H]4CC(=O)O)cc3)c(C)c2)c1 (single isomer, unassigned) [Example 13, Isomer 1] | 6700
8 | COc1ccc(F)c(-c2ccc(Cc3ccc(N4C[C@H](N5CCCCC5)C[C@@H]4CC(=O)O)cc3)c(C)c2)c1 (single isomer, unassigned) [Example 13, Isomer 2] | 2800
9 | COc1ccc(F)c(-c2ccc(Cc3ccc(N4C[C@@H](c5ccccc5OC)C[C@@H]4CC(=O)O)cc3)c(C)c2)c1 (single isomer, unassigned) [Example 15, Isomer 2, HCl] | 61
10 | COc1ccc(F)c(-c2ccc(Cc3ccc(N4CC(C#N)CC4CC(=O)O)cc3)c(C)c2)c1 (centres unmarked) [Example 2, 2-(4-Cyano-1-(4-((2′-fluoro-5′-methoxy-3-methylbiphenyl-4-yl)methyl)phenyl)pyrrolidin-2-yl)acetic Acid, TFA] | 270
11 | COc1ccc(F)c(-c2ccc(Cc3ccc(N4C[C@H](c5ccc(-c6ccccc6)cc5)C[C@@H]4CC(=O)O)cc3)c(C)c2)c1 [Example 4, 2-((2R,4S)-4-([1,1′-Biphenyl]-4-yl)-1-(4-((2′-fluoro-5′-methoxy-3-methyl-[1,1′-biphenyl]-4-yl)methyl)phenyl)pyrrolidin-2-yl)acetic Acid, HCl] | 210
12 | COc1ccc(F)c(-c2ccc(Cc3ccc(N4C[C@](OC)(c5ccc(-c6ccccc6)cc5)C[C@@H]4CC(=O)O)cc3)c(C)c2)c1 [Example 6, 2-((2R,4R)-4-([1,1′-Biphenyl]-4-yl)-1-(4-((2′-fluoro-5′-methoxy-3-methyl-[1,1′-biphenyl]-4-yl)methyl)phenyl)-4-methoxypyrrolidin-2-yl)acetic Acid, HCl] | 77
13 | COc1ccc(F)c(-c2ccc(Cc3ccc(N4C[C@H](c5cccnc5)C[C@@H]4CC(=O)O)cc3)c(C)c2)c1 [Example 8, 2-((2R,4S)-1-(4-((2′-Fluoro-5′-methoxy-3-methyl-[1,1′-biphenyl]-4-yl)methyl)phenyl)-4-(pyridin-3-yl)pyrrolidin-2-yl)acetic Acid, HCl] | 94
14 | COc1ccc(F)c(-c2ccc(COc3ccc(N4C[C@H](c5ccccc5)C[C@@H]4CC(=O)O)cc3)c(C)c2)c1 [Example 16, 2-((2R,4S)-1-(4-((2′-Fluoro-5′-methoxy-3-methyl-[1,1′-biphenyl]-4-yl)methoxy)phenyl)-4-phenylpyrrolidin-2-yl)acetic Acid, HCl] | 1000
15 | COCCCO[C@H]1CN(c2ccc(Cc3ccc(-c4cc(OC)ccc4F)cc3C)cc2)[C@@H](CC(=O)O)[C@@H]1C [Example 17, 2-((2S,3S,4R)-1-(4-((2′-Fluoro-5′-methoxy-3-methyl-[1,1′-biphenyl]-4-yl)methyl)phenyl)-4-(3-methoxypropoxy)-3-methylpyrrolidin-2-yl)acetic Acid, HCl] | 39

The remaining compounds from weak to strong by EC50, led by results:

Row | EC50 [nM] | Compound
16 | 1400 | COc1ccc(F)c(-c2ccc(Cc3ccc(N4C[C@@H](c5ccccn5)C[C@@H]4CC(=O)O)cc3)c(C)c2)c1 [Example 10, 2-((2R,4S)-1-(4-((2′-Fluoro-5′-methoxy-3-methyl-[1,1′-biphenyl]-4-yl)methyl)phenyl)-4-(pyridin-2-yl)pyrrolidin-2-yl)acetic Acid, HCl]
17 | 550 | COc1ccc(F)c(-c2ccc(Cc3ccc(N4CC(c5ccon5)CC4CC(=O)O)cc3)c(C)c2)c1 (single isomer, unassigned) [Example 11, Isomer 2, 2-(1-(4-((2′-Fluoro-5′-methoxy-3-methyl-[1,1′-biphenyl]-4-yl)methyl)phenyl)-4-(isoxazol-3-yl)pyrrolidin-2-yl)acetic Acid, HCl]
18 | 240 | COCCO[C@@H]1C[C@H](CC(=O)O)N(c2ccc(Cc3ccc(-c4cc(OC)ccc4F)cc3C)cc2)C1 [Example 7, 2-((2R,4R)-1-(4-((2′-Fluoro-5′-methoxy-3-methyl-[1,1′-biphenyl]-4-yl)methyl)phenyl)-4-(2-methoxyethoxy)pyrrolidin-2-yl)acetic Acid, HCl]
19 | 130 | COc1ccc(F)c(-c2ccc(Cc3ccc(N4C[C@@H](c5ccccc5)C[C@@H]4CC(=O)O)cc3)c(C)c2)c1 [Example 5, 2-((2R,4R)-1-(4-((2′-Fluoro-5′-methoxy-3-methyl-[1,1′-biphenyl]-4-yl)methyl)phenyl)-4-phenylpyrrolidin-2-yl)acetic Acid]
20 | 39 | COc1ccc(F)c(-c2ccc(Cc3ccc(N4C[C@H](c5ccccc5OC)C[C@@H]4CC(=O)O)cc3)c(C)c2)c1 (single isomer, unassigned) [Example 15, Isomer 1, HCl]
21 | 15 | COc1ccc(F)c(-c2ccc(Cc3ccc(N4C[C@H](c5ccccc5)C[C@@H]4CC(=O)O)cc3)c(C)c2)c1 [Example 1, 2-((2R,4S)-1-(4-((2′-Fluoro-5′-methoxy-3-methylbiphenyl-4-yl)methyl)phenyl)-4-phenylpyrrolidin-2-yl)acetic Acid, HCl]
22 | 13 | COc1ccc(F)c(-c2ccc(Cc3ccc(N4C[C@H](C5CCCCC5)C[C@@H]4CC(=O)O)cc3)c(C)c2)c1 [Example 3, 2-((2R,4S)-4-Cyclohexyl-1-(4-((2′-fluoro-5′-methoxy-3-methyl-[1,1′-biphenyl]-4-yl)methyl)phenyl)pyrrolidin-2-yl)acetic Acid, HCl]
23 | 10 | COc1ccc(F)c(-c2ccc(Cc3ccc(N4CC(c5cccc(Cl)c5)C[C@@H]4CC(=O)O)cc3)c(C)c2)c1 (single isomer, unassigned) [Example 12, Isomer 2, HCl]
